Results taken from patent US6677456B2, “Pentacyclic taxan compound” (Daiichi Pharmaceutical Co., Ltd., priority 1999, dated 2004).
Like-named read-outs stand apart in the source and are kept apart here.

Legend:
B16 Melanoma BL6 = test: Antitumor test, B16 Melanoma BL6 subcutaneously transplanted into mice (Test Example 2); assay type: in vivo, mice (C57BL/6); details: 4 days after transplantation, tumor weight after 15 days
Description: B16 Melanoma BL6 was subcutaneously transplanted into mice (C57BL/6), and each compound was administered 4 days thereafter. […] In the case of oral administration, each compound was administered by suspending it in a 0.5% carboxymethylcellulose sodium aqueous solution. Each animal was anatomized after 15 days of the transplantation to measure tumor weight. Antitumor effect was calculated by the following formula.
(§1) {1−(tumor weight of compound-administered group/tumor weight of solvent-administered group)}×100
Six mice were used in each group.

[1] = Platelet numbers, renal toxicity findings and deaths in the Meth A-bearing mice (Test Example 1); assay type: in vivo, mice (Balb/c); details: intravenous, 17th day; for Platelet numbers: % of solvent-administered group
Description: (§2) Mouse fibrosarcoma Meth A was subcutaneously transplanted into mice (line name; Balb/c), and each compound dissolved in a mixed solvent of ethanol, Tween 80 and 5% glucose (5:5:90 (v/v)) was administered by intravenous injection after 6, 8 or 10 days (or only after 6 days) of the transplantation. Each animal was anatomized on the 17th day to examine tumor weight, platelet numbers and renal toxicity. Six mice were used in each group.
The number of platelets was expressed by (platelets of compound-administered group/platelets of solvent-administered group)×100.
The renal toxicity findings were expressed as “changed” when a change such as fading was found by macroscopic observation at the time of anatomy or when a change such as precipitation of hyaline droplet substance in the renal tubular cell cytoplasm was found by a histological inspection.

[2] = Blood concentration and oral BA in monkey after single intravenous or oral dose (Test Example 4); assay type: in vivo, female Macaca irus (monkey); details: for Oral BA: ratio of oral AUC to intravenous AUC; for AUC(0-inf): female, Macaca irus (cynomolgus), blood
Description: The AUCO0-∞ means area under the blood concentration time curve of a drug concentration in blood during a period of from the time of administration (0 h) to the infinite time and it can be calculated in accordance with the method (trapezoidal rule) disclosed in Kiyoshi Yamaoka and Yusuke Tanigawara, Yakubutsu Sokudoron Nyumon (A Guide to Pharmacokinetics), pages 116-117. In addition, ratio of the AUC at the time of oral administration to the AUC at the time of intravenous administration was calculated as oral BA.
Animal: female Macaca irus, Administration method (compound of formula (B)) [intravenous] EtOH:Tween 80:5% glucose=5:5:90, [oral] […] 10% β-CyD-SBE7 (pH=3.5 in physiological saline), [oral] 40 mM acetate buffer (pH 4.0)

[3] = system: Mouse fibrosarcoma Meth A; test: Antitumor test, mouse fibrosarcoma Meth A subcutaneously transplanted into mice (Test Example 1); assay type: in vivo, mice (Balb/c); details: intravenous, tumor weight on 17th day
Description: as §2
Antitumor effect was calculated by the following formula.
as §1

human liver microsome = test: Metabolism in Human Microsome P450 (Test Example 3)
Description: Each of the samples to be evaluated was dissolved in acetonitrile/water (1:1, v/v) to a concentration of 500 μM, and the solution was mixed with human liver microsome (Xenotech LLC) and other components such as various coenzymes and buffer solution and allowed to generate the metabolic reaction at 37° C. The reaction solution was composed of phosphate buffer (0.076 M; final concentration, the same shall apply hereinafter), sample to be evaluated (10 μM), human liver microsome (1 mg/ml), glucose 6-phosphate (10 mM), glucose-6-phosphate dehydrogenase (1 unit/ml), magnesium chloride (4 mM) and reduced nicotinamide adenine dinucleotide phosphate (β-NADPH, 1 mM), and 500 μl of the solution was used in one reaction. In this case, the reaction solution excluding β-NADPH was incubated in advance at 37° C. for 2 minutes and then the reaction was started by adding a β-NADPH aqueous solution (50 mM, 10 μl).
The reaction was terminated by adding 1 ml of ice-cooled acetonitrile 1, 2 or 5 minutes after commencement of the reaction.
In this connection, a sample of 0 minute after commencement of the reaction was prepared by adding water instead of the β-NADPH aqueous solution and immediately adding 1 ml of acetonitrile. A 100 μl portion of an internal standard substance was added to each of these samples, and the reaction solution was centrifuged for 15 minutes. The resulting supernatant was injected into a high performance liquid chromatography (HPLC) to measure concentration of the sample to be evaluated. […] By plotting the amount of formed metabolite against the reaction time and carrying out linear regression by the method of least squares, amount of the metabolite formed per 1 minute (metabolic rate constant: k (nmol/min/mg protein)) was calculated from the slope.
From the thus obtained metabolic rate constant k (nmol/min/mg protein), the liver-specific clearance (CLint) was calculated by the following formula. […]
Theoretical bioavailability (F) value was calculated from the CLh by the following formula.

CC(=O)O[C@@]12CO[C@@H]1C[C@H](O)[C@@]1(C)C(=O)[C@H](O)C3=C(C)[C@@H](OC(=O)[C@H](O)[C@@H](NC(=O)OC(C)(C)C)c4ccccc4)C[C@@](O)([C@@H](OC(=O)c4ccccc4)[C@H]21)C3(C)C [(A), taxotere]
Antitumor effect (B16 Melanoma BL6; 180.0 mg/kg intravenous): 95.7%
Antitumor effect (B16 Melanoma BL6; 600.0 mg/kg oral): 6.2%

CC(=O)O[C@@]12CO[C@@H]1CC[C@@]1(C)[C@@H]3O[C@H](CN4CCOCC4)O[C@@H]3C3=C(C)[C@@H](OC(=O)[C@H](O)[C@@H](NC(=O)OC(C)(C)C)c4ccccn4)C[C@@](O)([C@@H](OC(=O)c4ccccc4)[C@@H]12)C3(C)C [Compound (B)]
Platelet numbers ([1]; 22.5 mg/kg × 1): 124%
Renal toxicity findings ([1]; 32.4 mg/kg × 1): no change
Platelet numbers ([1]; 32.4 mg/kg × 1): 142%
Oral BA ([2]; 1.6 mg/kg): 7.1%
AUC(0-inf) ([2]; single dose 1.6 mg/kg intravenous, one monkey, read-out: AUC0-∞ Intravenous): 394 ng·h/mL
AUC(0-inf) ([2]; single dose 1.6 mg/kg oral, one monkey (different individual), read-out: AUC0-∞ Oral): 28.1 ng·h/mL
Oral absorption property in monkey (in words) ([2]; in vivo, po): low
Antitumor effect ([3]; 22.5 mg/kg × 1 (day 6)): 69%
Antitumor effect ([3]; 32.4 mg/kg × 1 (day 6), three deaths among 6 animals): 83%
Antitumor effect (B16 Melanoma BL6; 13.3 mg/kg oral): 90.5%
Antitumor effect (B16 Melanoma BL6; 20.0 mg/kg oral): 97.4%

COc1ccc([C@H](NC(=O)OC(C)(C)C)[C@@H](O)C(=O)O[C@H]2C[C@@]3(O)[C@@H](OC(=O)c4ccccc4)[C@H]4[C@@](C)(CC[C@H]5OC[C@]54OC(C)=O)[C@@H]4O[C@H](CN5CCOCC5)O[C@@H]4C(=C2C)C3(C)C)nc1 [Example 1, (1S,2S,3R,4S,5R,8R,9S,10R,13S)-4-Acetoxy-2-benzoyloxy-5,20-epoxy-1-hydroxy-9,10-[(1S)-2-(morpholino)ethylidenedioxy]tax-11-en-13-yl (2R,3S)-3-(tert-butoxycarbonylamino)-2-hydroxy-3-(5-methoxy-2-pyridyl)propionate]
melting point: 160 to 161 °C

CC(=O)O[C@@]12CO[C@@H]1CC[C@@]1(C)[C@@H]3O[C@H](CN(C)C)O[C@@H]3C3=C(C)[C@@H](OC(=O)[C@H](O)[C@@H](NC(=O)OC(C)(C)C)c4ncccc4F)C[C@@](O)([C@@H](OC(=O)c4ccccc4)[C@@H]12)C3(C)C [Example 7, (1S,2S,3R,4S,5R,8R,9S,10R,13S)-4-Acetoxy-2-benzoyloxy-9,10-[(1S)-2-(dimethylamino)ethylidenedioxy]-5,20-epoxy-1-hydroxytax-11-en-13-yl (2R,3S)-3-(tert-butoxycarbonylamino)-3-(3-fluoro-2-pyridyl)-2-hydroxypropionate]
Oral BA ([2]; 1.8 mg/kg): 62.4%
AUC(0-inf) ([2]; single dose 1.8 mg/kg intravenous, average of 4 monkeys, read-out: AUC0-∞ Intravenous): 994 ng·h/mL
AUC(0-inf) ([2]; single dose 1.8 mg/kg oral, average of 4 monkeys, read-out: AUC0-∞ Oral): 621 ng·h/mL
Antitumor effect (B16 Melanoma BL6; 7.9 mg/kg intravenous): 91.5%
Antitumor effect (B16 Melanoma BL6; 7.9 mg/kg oral): 91.5%
Antitumor effect (B16 Melanoma BL6; 11.9 mg/kg intravenous): 95.5%
Antitumor effect (B16 Melanoma BL6; 11.9 mg/kg oral): 97.4%

(1S,2S,3R,4S,5R,8R,9S,10R,13S)-4-Acetoxy-2-benzoyloxy-5,20-epoxy-1-hydroxy-9,10-[(1S)-2-(morpholino)ethylidenedioxy]tax-11-en-13-yl (2R,3S)-3-(tert-butoxycarbonylamino)-3-(5-fluoro-2-pyridyl)-2-hydroxypropionate [Example 3]
Theoretical F value of unchanged compound (human liver microsome; calculated from CLh (Well-stirred model, Q 20 ml/min/kg)): 0.92
Metabolic rate constant (human liver microsome; human liver microsome 1 mg/ml, sample 10 μM, 37° C., 0-5 minutes): 0.02 nmol/min/mg protein
Clint (human liver microsome; liver-specific clearance calculated from the metabolic rate constant): 1.8 mL/min/kg
